In general, IC50 refers to the point on the concentration scale where inhibition reaches its midpoint.

Counter-ions that a name gives are not always drawn. Like-named read-outs stand apart in the source and are kept apart here.

The text below walks through data of patent US8871753B2, “Macrocyclic compounds and their use as kinase inhibitors” (Incyte Corporation, priority 2008, dated 2014).

Common to all, as to type: biochemical
Assay [1] concerns the target T1, human JAK1 (a.a. 837-1142) (Homo sapiens, UniProt P23458).
T1 construct: human JAK1 (a.a. 837-1142); His tag (N); made in house; host or cells: insect cells (baculovirus)
In words: In vitro JAK kinase assay (HTRF, phosphorylation of a biotinylated peptide), JAK1. The following applies: read-out: JAK1 IC50. In outline: (§1)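 Kinase activity was measured as phosphorylation of a biotinylated peptide, with ATP at 90 μM for JAK1, 30 μM for JAK2 and 3 μM for JAK3. Reactions ran 1 hr at room temperature, were stopped with EDTA plus SA-APC and Eu-Py20, and were read by HTRF after 40 minutes of antibody binding.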

The target of assay [2] is T2, human JAK2 (a.a. 828-1132) (Homo sapiens, UniProt O60674).
T2 construct: JAK2 (a.a. 828-1132); His tag (N); made in house; host or cells: insect cells (baculovirus)
T2 sequence (O60674 828-1132): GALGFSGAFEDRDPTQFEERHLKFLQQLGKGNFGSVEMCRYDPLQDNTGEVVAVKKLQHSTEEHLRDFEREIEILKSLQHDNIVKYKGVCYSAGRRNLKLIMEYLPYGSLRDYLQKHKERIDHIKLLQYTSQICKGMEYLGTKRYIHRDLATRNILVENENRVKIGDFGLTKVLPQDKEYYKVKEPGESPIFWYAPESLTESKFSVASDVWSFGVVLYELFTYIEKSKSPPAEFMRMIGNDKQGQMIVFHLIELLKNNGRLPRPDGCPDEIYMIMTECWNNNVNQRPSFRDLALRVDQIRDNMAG
Description: In vitro JAK kinase assay (HTRF, phosphorylation of a biotinylated peptide), JAK2. In outline: as §1

For assay [3], the target named is T3, human JAK3 (a.a. 781-1124) (Homo sapiens, UniProt P52333).
T3 construct: JAK3 (a.a. 781-1124); His tag (N); made in house; host or cells: insect cells (baculovirus)
T3 sequence (P52333 781-1124): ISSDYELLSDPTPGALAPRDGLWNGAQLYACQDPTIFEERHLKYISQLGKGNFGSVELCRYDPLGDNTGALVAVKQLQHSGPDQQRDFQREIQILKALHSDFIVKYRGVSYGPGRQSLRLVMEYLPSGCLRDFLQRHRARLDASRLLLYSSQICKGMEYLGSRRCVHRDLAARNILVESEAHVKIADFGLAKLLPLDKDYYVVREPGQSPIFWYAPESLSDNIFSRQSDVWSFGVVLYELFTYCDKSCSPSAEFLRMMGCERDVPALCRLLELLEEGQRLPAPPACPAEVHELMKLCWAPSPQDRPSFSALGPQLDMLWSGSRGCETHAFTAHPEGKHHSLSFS
Description: In vitro JAK kinase assay (HTRF, phosphorylation of a biotinylated peptide), JAK3. The method, boiled down: as §1
A general note: TR-FRET usually uses a lanthanide donor and a delayed reading to cut background.

Assay [4] addresses TYK2 (Homo sapiens, UniProt P29597). Description: TYK2 kinase inhibition (Table A1).
Assay [5] concerns the target T4, Recombinant Human Anaplastic Lymphoma Kinase (Homo sapiens, UniProt Q9UM73).
T4 construct: purchased Invitrogen, Carlsbad, Calif
In words: ALK HTRF kinase assay. Conditions: for IC50: Table D1. In outline:
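Readout was HTRF between a Eu-W1024 anti-phosphotyrosine antibody and streptavidin-APC bound to biotinylated peptide phosphorylated by recombinant human ALK. IC50 values came from a four-parameter logistic fit.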

Setting [6] is: method AA1 (90 μM ATP) or AA2 (1000 μM ATP), not stated per value.
Setting [7] is: method AA1 (30 μM ATP) or AA2 (1000 μM ATP), not stated per value.
The mark [8] stands for this setting: method AA1 (3 μM ATP) or AA2 (1000 μM ATP), not stated per value.
[9] abbreviates: compound at 500 nM or 1 mM, 90 μM ATP.
[10] abbreviates: compound at a concentration of 500 nM or 1 mM (not specified), cells shown as percentage.

TYK2, sequence (P29597 whole entry): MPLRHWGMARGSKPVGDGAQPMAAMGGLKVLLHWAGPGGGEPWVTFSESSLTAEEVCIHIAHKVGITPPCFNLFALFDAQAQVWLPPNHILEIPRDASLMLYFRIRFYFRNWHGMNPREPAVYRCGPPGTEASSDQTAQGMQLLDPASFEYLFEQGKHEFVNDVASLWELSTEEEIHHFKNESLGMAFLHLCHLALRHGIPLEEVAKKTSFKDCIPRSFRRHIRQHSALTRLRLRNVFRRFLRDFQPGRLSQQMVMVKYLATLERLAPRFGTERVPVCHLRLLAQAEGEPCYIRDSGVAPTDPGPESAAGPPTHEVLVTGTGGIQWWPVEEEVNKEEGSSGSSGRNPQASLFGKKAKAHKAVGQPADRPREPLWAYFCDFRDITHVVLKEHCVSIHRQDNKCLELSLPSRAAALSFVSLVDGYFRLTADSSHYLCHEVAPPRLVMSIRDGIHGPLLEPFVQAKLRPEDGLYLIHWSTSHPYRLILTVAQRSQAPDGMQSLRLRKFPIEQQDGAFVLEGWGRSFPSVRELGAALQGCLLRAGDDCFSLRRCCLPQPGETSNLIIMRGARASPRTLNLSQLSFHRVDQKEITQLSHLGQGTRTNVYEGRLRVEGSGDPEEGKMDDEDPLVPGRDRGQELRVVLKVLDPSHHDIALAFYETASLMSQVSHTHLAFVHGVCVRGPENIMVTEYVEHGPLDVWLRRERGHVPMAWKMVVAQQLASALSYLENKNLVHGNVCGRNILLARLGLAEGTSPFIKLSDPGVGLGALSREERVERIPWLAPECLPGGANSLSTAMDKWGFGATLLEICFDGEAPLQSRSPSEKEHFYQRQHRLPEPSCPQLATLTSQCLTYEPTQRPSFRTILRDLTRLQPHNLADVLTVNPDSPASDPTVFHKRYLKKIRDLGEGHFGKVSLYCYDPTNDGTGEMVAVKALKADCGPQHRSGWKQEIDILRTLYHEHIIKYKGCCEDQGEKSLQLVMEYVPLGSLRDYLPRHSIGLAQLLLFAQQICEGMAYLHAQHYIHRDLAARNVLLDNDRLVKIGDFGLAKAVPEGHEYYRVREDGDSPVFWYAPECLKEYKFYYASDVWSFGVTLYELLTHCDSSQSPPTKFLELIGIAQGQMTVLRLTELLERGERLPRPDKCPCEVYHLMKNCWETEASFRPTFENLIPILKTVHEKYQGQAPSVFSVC
T1 sequence (P23458 849-1154): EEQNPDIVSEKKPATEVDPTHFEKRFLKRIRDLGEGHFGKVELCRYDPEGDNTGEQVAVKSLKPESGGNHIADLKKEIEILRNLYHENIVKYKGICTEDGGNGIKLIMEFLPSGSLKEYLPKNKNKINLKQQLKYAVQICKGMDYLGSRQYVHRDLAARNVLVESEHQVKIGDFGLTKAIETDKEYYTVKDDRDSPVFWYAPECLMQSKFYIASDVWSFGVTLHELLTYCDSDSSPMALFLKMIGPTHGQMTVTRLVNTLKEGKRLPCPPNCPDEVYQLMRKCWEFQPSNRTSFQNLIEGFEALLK
T4 sequence (Q9UM73 19-1620): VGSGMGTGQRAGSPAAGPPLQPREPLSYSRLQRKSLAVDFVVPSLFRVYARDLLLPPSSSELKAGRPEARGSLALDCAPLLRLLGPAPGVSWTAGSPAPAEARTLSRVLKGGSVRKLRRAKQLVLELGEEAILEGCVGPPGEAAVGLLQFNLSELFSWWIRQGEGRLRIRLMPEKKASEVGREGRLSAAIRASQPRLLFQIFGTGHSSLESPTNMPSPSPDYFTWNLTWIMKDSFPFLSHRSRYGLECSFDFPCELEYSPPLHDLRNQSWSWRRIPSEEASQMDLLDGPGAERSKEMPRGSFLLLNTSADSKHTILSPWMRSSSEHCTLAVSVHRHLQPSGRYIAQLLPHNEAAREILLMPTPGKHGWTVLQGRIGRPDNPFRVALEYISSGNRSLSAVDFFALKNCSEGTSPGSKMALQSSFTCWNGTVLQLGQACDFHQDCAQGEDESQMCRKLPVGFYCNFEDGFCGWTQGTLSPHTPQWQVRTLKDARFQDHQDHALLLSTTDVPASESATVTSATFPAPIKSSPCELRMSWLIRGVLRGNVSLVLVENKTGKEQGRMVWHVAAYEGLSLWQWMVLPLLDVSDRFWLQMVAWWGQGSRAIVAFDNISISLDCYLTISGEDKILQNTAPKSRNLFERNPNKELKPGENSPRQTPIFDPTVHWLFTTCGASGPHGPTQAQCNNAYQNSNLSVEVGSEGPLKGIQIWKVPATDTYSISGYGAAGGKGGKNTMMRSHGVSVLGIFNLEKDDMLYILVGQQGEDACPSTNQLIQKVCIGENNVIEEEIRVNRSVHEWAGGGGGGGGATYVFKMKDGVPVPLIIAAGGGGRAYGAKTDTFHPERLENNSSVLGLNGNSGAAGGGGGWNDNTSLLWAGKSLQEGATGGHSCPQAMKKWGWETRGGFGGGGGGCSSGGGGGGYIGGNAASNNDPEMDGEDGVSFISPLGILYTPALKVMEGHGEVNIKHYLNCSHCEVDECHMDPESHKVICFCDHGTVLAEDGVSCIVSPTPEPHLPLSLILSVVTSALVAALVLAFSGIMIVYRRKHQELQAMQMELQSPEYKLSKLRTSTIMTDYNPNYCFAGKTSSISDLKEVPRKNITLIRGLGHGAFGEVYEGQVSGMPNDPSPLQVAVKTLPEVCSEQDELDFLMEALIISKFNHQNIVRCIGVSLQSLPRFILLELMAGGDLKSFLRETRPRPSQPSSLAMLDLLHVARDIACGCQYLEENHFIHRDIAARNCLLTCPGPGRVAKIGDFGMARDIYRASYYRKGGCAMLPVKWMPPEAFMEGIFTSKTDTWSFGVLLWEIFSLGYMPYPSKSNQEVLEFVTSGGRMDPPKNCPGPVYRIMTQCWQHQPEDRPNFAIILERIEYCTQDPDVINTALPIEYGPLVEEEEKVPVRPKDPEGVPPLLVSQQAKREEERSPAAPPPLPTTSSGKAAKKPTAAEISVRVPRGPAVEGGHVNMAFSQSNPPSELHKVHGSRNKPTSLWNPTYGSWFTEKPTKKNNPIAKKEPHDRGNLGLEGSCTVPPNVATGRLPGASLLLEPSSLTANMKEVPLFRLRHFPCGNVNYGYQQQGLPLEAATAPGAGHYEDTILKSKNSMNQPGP

With `C[C@H](O)C(=O)Nc1ccc2cc1CCc1cccc(c1)Nc1ncc(Cl)c(n1)N2` [Example A106, (2S)—N-[6-Chloro-2,4,8,22-tetraazatetracyclo[14.3.1.1(3,7).1(9,13)]docosa-1(20),3(22),4,6,9(21),10,12,16,18-nonaen-12-yl]-2-hydroxypropanamide trifluoroacetate], the IC50 in assay [1] (setting [6]) is 18 nM; in assay [2] (setting [7]), 10 nM; in assay [3] (setting [8]) it was 6.2 nM; in assay [4] it was 22 nM. In addition, the “ALK % of inhibition at a concentration of 500 nM or 1 mM” value (“ALK % of inhibition” below) in assay [5] (setting [9]) came to 21%.
Consider `Cc1cc(C(=O)Nc2cc3cc(c2)OCCSc2cccc(c2)Nc2nc(ncc2Cl)N3)no1` [Example D58, N-[6-Chloro-17-oxa-14-thia-2,4,8,24-tetraazatetracyclo[16.3.1.1(3,7).1(9,13)]tetracosa-1(22),3(24),4,6,9(23),10,12,18,20-nonaen-20-yl]-5-methylisoxazole-3-carboxamide trifluoroacetate], for which the IC50 in assay [1] (Table D1) worked out at 6.5 nM; in assay [2] (Table D1), 1.3 nM; in assay [3] (Table D1), 21 nM; in assay [4] (Table D1), 2.5 nM; in assay [5] (90 μM ATP), 490 nM.
For `O=C(Nc1ccc2cc1CCc1cccc(c1)Nc1ncc(Cl)c(n1)N2)[C@@H]1CCN(C(=O)Nc2ccccc2)C1` [Example A54, (3R)—N(3)-[6-Chloro-2,4,8,22-tetraazatetracyclo[14.3.1.1(3,7).1(9,13)]docosa-1(20),3(22),4,6,9(21),10,12,16,18-nonaen-12-yl]-N(1)-phenylpyrrolidine-1,3-dicarboxamide trifluoroacetate], the IC50 in assay [1] (setting [6]) is 4 nM; in assay [2] (setting [7]), 2.9 nM; in assay [3] (setting [8]), 3.5 nM; in assay [4] it was 12 nM. The “ALK % of inhibition” value in assay [5] (setting [9]) is on record as 54%.
Turning to `O=C(CC1CCN(C(=O)c2ccncc2)CC1)Nc1ccc2cc1CCc1cncc(c1)Nc1ncc(Cl)c(n1)N2` [Example A189, N-[6-Chloro-2,4,8,18,22-pentaazatetracyclo[14.3.1.1(3,7).1(9,13)]docosa-1(20),3(22),4,6,9(21),10,12,16,18-nonaen-12-yl]-2-(1-isonicotinoylpiperidin-4-yl)acetamide tris(trifluoroacetate)], the IC50 in assay [1] (setting [6]) is 116 nM; in assay [2] (setting [7]), greater than 200 nM; in assay [3] (setting [8]), greater than 200 nM; in assay [4], greater than 200 nM. Also, the “ALK % of inhibition” value in assay [5] (setting [9]) is recorded as 21%.
In the case of `O=S(=O)(Nc1ccc2cc1CCc1cccc(c1)Nc1ncc(Cl)c(n1)N2)C1CC1` [Example B158, N-[6-Chloro-2,4,8,22-tetraazatetracyclo[14.3.1.1(3,7).1(9,13)]docosa-1(20), 3(22),4,6,9(21),10,12,16,18-nonaen-12-yl]cyclopropanesulfonamide trifluoroacetate], the IC50 in assay [1] (Table B1) came to 0.15 nM; in assay [2] (Table B1), 0.15 nM; in assay [3] (Table B1), 0.64 nM; in assay [4] (Table B1) it was 0.49 nM. Besides, the “ALK % of inhibition” value in assay [5] (setting [10]) was 71%.
Consider `CC(C)(C)C(=O)N1CCC(CC(=O)Nc2ccc3cc2CCc2cncc(c2)Nc2ncc(Cl)c(n2)N3)CC1` [Example A112, N-[6-Chloro-2,4,8,18,22-pentaazatetracyclo[14.3.1.1(3,7).1(9,13)]docosa-1(20),3(22),4,6,9(21),10,12,16,18-nonaen-12-yl]-2-[1-(2,2-dimethylpropanoyl)piperidin-4-yl]acetamide bis(trifluoroacetate)], for which the half-maximal inhibitory concentration (IC50) in assay [1] (setting [6]) is 8 nM; in assay [2] (setting [7]), 38 nM; in assay [3] (setting [8]), 239 nM; in assay [4], 61 nM. The “ALK % of inhibition” value in assay [5] (setting [9]) was determined as 20%.
Regarding `CC(C)C(=O)N1CCC(CC(=O)Nc2ccc3cc2CCc2cccc(c2)Nc2ncc(Cl)c(n2)N3)CC1` [Example A89, N-[6-Chloro-2,4,8,22-tetraazatetracyclo[14.3.1.1(3,7).1(9,13)]docosa-1(20),3(22),4,6,9(21),10,12,16,18-nonaen-12-yl]-2-(1-isobutyrylpiperidin-4-yl)acetamide trifluoroacetate], the IC50 was 6.5 nM in assay [1] (setting [6]), 3.7 nM in assay [2] (setting [7]), 57 nM in assay [3] (setting [8]) and 3 nM in assay [4]. The “ALK % of inhibition” value in assay [5] (setting [9]) stood at 29%.
For the compound `CS(=O)(=O)c1ccc(-c2cc3cc(c2)Nc2ncc(Cl)c(n2)Nc2cccc(c2)OCC3)cc1` [Example D29, 6-Chloro-19-[4-(methylsulfonyl)phenyl]-14-oxa-2,4,8,23-tetraazatetracyclo[15.3.1.1(3,7).1(9,13)]tricosa-1(21),3(23),4,6,9(22),10,12,17,19-nonaene trifluoroacetate], the IC50 in assay [1] (Table D1) was 2 nM; in assay [2] (Table D1), 0.5 nM; in assay [3] (Table D1), 14 nM; in assay [4] (Table D1), 3.4 nM; in assay [5] (90 μM ATP), 238 nM.
As for `NC(=O)COc1cc2cc(c1)Nc1nc(ncc1Cl)Nc1cccc(c1)CC2` [Example A23, 2-{[6-Chloro-2,4,8,22-tetraazatetracyclo[14.3.1.1(3,7).1(9,13)]docosa-1(20),3(22),4,6,9(21),10,12,16,18-nonaen-11-yl]oxy}acetyl)acetamide trifluoroacetate], the IC50 in assay [1] (setting [6]) is 12 nM; in assay [2] (setting [7]), 1 nM; in assay [3] (setting [8]), 22 nM; in assay [4] it was 37 nM. In assay [5] (setting [9]), the “ALK % of inhibition” value was 33%.
For `Cc1cc(N2CCC(CC(=O)Nc3ccc4cc3CCc3cncc(c3)Nc3ncc(Cl)c(n3)N4)CC2)no1` [Example A247, N-[6-Chloro-2,4,8,18,22-pentaazatetracyclo[14.3.1.1(3,7).1(9,13)]docosa-1(20),3(22),4,6,9(21),10,12,16,18-nonaen-12-yl]-2-[1-(5-methylisoxazol-3-yl)piperidin-4-yl]acetamide bis(trifluoroacetate)] the same measures were 6.9 nM, 72 nM, greater than 200 nM, 84 nM and 35%.
Turning to `O=C(Nc1ccc2cc1CCc1cncc(c1)Nc1ncc(Cl)c(n1)N2)N1CCN(c2ccc(C(F)(F)F)cn2)CC1` [Example B301, N-[6-Chloro-2,4,8,18,22-pentaazatetracyclo[14.3.1.1(3,7).1(9,13)]docosa-1(20),3(22),4,6,9(21),10,12,16,18-nonaen-12-yl]-4-[5-(trifluoromethyl)pyridin-2-yl]piperazine-1-carboxamide tris(trifluoroacetate)], the half-maximal inhibitory concentration (IC50) in assay [1] (Table B1) is 35 nM; in assay [2] (Table B1), greater than 400 nM; in assay [3] (Table B1), greater than 400 nM; in assay [4] (Table B1), 75 nM. The “ALK % of inhibition” value in assay [5] (setting [10]) is listed as 58%.
For the compound `O=C(Nc1ccc(OC(F)(F)F)cc1)Nc1ccc2cc1CCc1cccc(c1)Nc1ncc(Cl)c(n1)N2` [Example B132, N-[6-Chloro-2,4,8,22-tetraazatetracyclo[14.3.1.1(3,7).1(9,13)]docosa-1(20), 3(22),4,6,9(21),10,12,16,18-nonaen-12-yl]-N′-[4-(trifluoromethoxy)phenyl]urea trifluoroacetate], the concentration for half-maximal inhibition (IC50) in assay [1] (Table B1) is 11 nM; in assay [2] (Table B1), 27 nM; in assay [3] (Table B1), 198 nM; in assay [4] (Table B1), 96 nM. In assay [5] (setting [10]), the “ALK % of inhibition” value was determined as 5%.
On to `O=C(CC1CCN(C(=O)Nc2ccc(F)cc2)CC1)Nc1ccc2cc1CCc1cncc(c1)Nc1ncc(Cl)c(n1)N2` [Example A148, 4-(2-{[6-Chloro-2,4,8,18,22-pentaazatetracyclo[14.3.1.1(3,7).1(9,13)]docosa-1(20),3(22),4,6,9(21),10,12,16,18-nonaen-12-yl]amino}-2-oxoethyl)-N-(4-fluorophenyl)piperidine-1-carboxamide bis(trifluoroacetate)], for which the half-maximal inhibitory concentration (IC50) in assay [1] (setting [6]) was 0.2 nM; in assay [2] (setting [7]), 1.5 nM; in assay [3] (setting [8]) it was greater than 100 nM; in assay [4], 3.9 nM. Further, in assay [5] (setting [9]), the “ALK % of inhibition” value was 42%.
As to `CCC(C)c1ccccc1NC(=O)Nc1ccc2cc1CCc1cccc(c1)Nc1ncc(Cl)c(n1)N2` (stereo not shown) [Example B126, N-(2-sec-Butylphenyl)-N′-[6-chloro-2,4,8,22-tetraazatetracyclo[14.3.1.1(3,7).1(9,13)]docosa-1(20),3(22),4,6,9(21),10,12,16,18-nonaen-12-yl]urea trifluoroacetate], the IC50 in assay [1] (Table B1) amounted to 8.9 nM; in assay [2] (Table B1), 20 nM; in assay [3] (Table B1), 164 nM; in assay [4] (Table B1) it was 52 nM. For the same compound, in assay [5] (setting [10]), the “ALK % of inhibition” value came out at 6.1%.
